Experimental findings from patent US7326707B2, “Bicyclic melanocortin-specific compounds” (Palatin Technologies Incorporated, priority 2001, dated 2008) are described below.

The structures appear in SMILES notation.

The target of one assay is T1, hMC5-R (Homo sapiens, UniProt P33032).
T1 construct: expressed in transfected cells
Description: Competitive inhibition binding assay, 125I-NDP-α-MSH, MC5-R. The settings on record: for Inhibition at 1 μM MC5-R: 1 μM compound, inhibition of 125I-NDP-α-MSH binding, mean of triplicates, results less than 0% reported as 0%. The protocol:
(§1) Incubation was for 90 minutes at room temperature, after which the assay mixture was filtered and the membranes washed three times with ice cold buffer. The filter was dried and counted in a gamma counter for remaining radioactivity bound to the membranes. […] Each assay was conducted in triplicate and the actual mean values are described.

Another assay deals with T2, hMC3-R (Homo sapiens, UniProt P41968).
T2 construct: expressed in transfected cells
The experiment in a line: Competitive inhibition binding assay, 125I-NDP-α-MSH, MC3-R. The settings on record: for Inhibition at 1 μM MC3-R: 1 μM compound, inhibition of 125I-NDP-α-MSH binding, mean of triplicates, results less than 0% reported as 0%. The protocol: as §1

In assay [1] the target is T3, B-16 mouse melanoma cells (containing MC1-R) (Mus musculus, UniProt Q01727).
T3 construct: B-16 mouse melanoma cells (containing MC1-R); endogenous in cells; host or cells: B-16 mouse melanoma cells
The experiment in a line: Competitive inhibition binding assay, 125I-NDP-α-MSH, MC1-R. As to conditions: for Inhibition at 1 μM MC1-R: 1 μM compound, inhibition of 125I-NDP-α-MSH binding, mean of triplicates, results less than 0% reported as 0%. On the procedure:
as §1

The target of another assay is T4, hMC4-R (Homo sapiens, UniProt P32245).
T4 construct: expressed in transfected cells
Description: Competitive inhibition binding assay, 125I-NDP-α-MSH, MC4-R. As to conditions: for Inhibition at 1 μM MC4-R: 1 μM compound, inhibition of 125I-NDP-α-MSH binding, mean of triplicates, results less than 0% reported as 0%. The protocol: as §1

Assay [2] deals with T5, MC3-R (HEK-293 cells expressing MC3-R) (Homo sapiens, UniProt P41968).
T5 construct: expressed in transfected cells; host or cells: HEK-293
The experiment in a line: Ki determination by the method of Example 4, MC3-R. Format: cell-based.

The target of assay [3] is T6, MC1-R (B-16 mouse melanoma cells) (Mus musculus, UniProt Q01727).
T6 construct: B-16 mouse melanoma cells (containing MC1-R); endogenous in cells; host or cells: B-16 mouse melanoma cells
The experiment in a line: Ki determination by the method of Example 4, MC1-R. Format: cell-based.

The target of assay [4] is T7, MC4-R (HEK-293 cells expressing MC4-R) (Homo sapiens, UniProt P32245).
T7 construct: expressed in transfected cells; host or cells: HEK-293
Description: Ki determination by the method of Example 4, MC4-R. The format is cell-based. On the procedure:
(§2) The Ki (nM) of certain compounds of the invention were determined. Functional evaluation of compounds at melanocortin receptors was performed by measuring the accumulation of intracellular cAMP in HEK-293 cells expressing MC3-R, MC4-R or MC5-R, and in B-16 mouse melanoma cells (containing MC1-R). Cells, suspended in Earle's Balanced Salt Solution containing 10 mM HEPES, pH 7.5, 5 mM MgCl2, 1 mM glutamine, 0.1% albumin and 0.6 mM 3-isobutyl-1-methyl-xanthine, a phosphodiesterase inhibitor, were plated in 96 well plates at a density of 0.5×10^5 cells per well. Cells were incubated with the test compounds in the presence or absence of α-MSH for 1 hour at 37° C. cAMP levels were measured by EIA (Amersham) in the cell lysates. Data analysis and EC50 values were determined using nonlinear regression analysis with Prism Graph-Pad software.

Assay [5] concerns the target T8, MC5-R (HEK-293 cells expressing MC5-R) (Homo sapiens, UniProt P33032).
T8 construct: expressed in transfected cells; host or cells: HEK-293
The experiment in a line: Ki determination by the method of Example 4, MC5-R. Format: cell-based.

The test system of the next assay is Male Sprague-Dawley rats. Description: ICV food intake and body weight change. The format is in vivo, rat. The settings on record: 1 nmol dose. On the procedure:
Change in food intake and body weight was evaluated for selected compounds. Male Sprague-Dawley rats weighing ˜300 g at the beginning of the experiment were kept on a 12 hour on/off light cycle. Lights out was adjusted to 12:00 p.m. to allow for dosing just prior to the start of their dark period. Rats (8-12/group) were fed powdered chow and water ad libitum. For 1 week before treatment, 24-hour food intake and body weight change was recorded to assess a baseline for the group during vehicle treatment. The rats were dosed ICV with vehicle or selected compounds (1-3 nmol). The changes in body weight and food intake for the 24 hour period after dosing were determined. The changes in body weight and food intake for the 48 hour period, and in same cases for 72 hours as well, after dosing were also measured to determined reversal of changes in body weight and food intake effect back to baseline.

Assay [6] has as its target T8, MC5-R (HEK-293 cells expressing MC5-R). Description: cAMP assay for agonist/antagonist status, MC5-R. The format is cell-based. The settings on record: cAMP assay as in Example 5. On the procedure:
as §2
(§3) The agonist/antagonist status with respect to MC1-R, MC4-R and MC5-R of certain compounds of the invention was determined. Antagonistic activity was determined by measuring the inhibition of α-MSH-induced cAMP levels following exposure to the compounds as in Example 4.
(Cyclic AMP is a second messenger, typically raised through Gs and lowered through Gi signalling.)

The target in assay [7] is T7, MC4-R (HEK-293 cells expressing MC4-R). Description: cAMP assay for agonist/antagonist status, MC4-R. The format is cell-based. As to conditions: cAMP assay as in Example 5. On the procedure:
as §2, §3

For assay [8], the target named is T6, MC1-R (B-16 mouse melanoma cells). Description: cAMP assay for agonist/antagonist status, MC1-R. The format is cell-based. The settings on record: cAMP assay as in Example 5. The protocol:
as §2, §3

T6 sequence (Q01727 whole entry): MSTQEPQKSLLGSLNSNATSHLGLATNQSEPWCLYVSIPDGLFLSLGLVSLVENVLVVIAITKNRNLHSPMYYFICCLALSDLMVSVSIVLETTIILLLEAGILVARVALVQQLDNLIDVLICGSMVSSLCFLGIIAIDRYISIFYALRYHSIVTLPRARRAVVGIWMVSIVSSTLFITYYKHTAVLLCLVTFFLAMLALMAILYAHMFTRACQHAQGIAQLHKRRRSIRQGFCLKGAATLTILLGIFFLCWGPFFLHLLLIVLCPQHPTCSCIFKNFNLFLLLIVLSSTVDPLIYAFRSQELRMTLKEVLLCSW
T3 sequence (Q01727 whole entry): as above
T4 sequence (P32245 whole entry): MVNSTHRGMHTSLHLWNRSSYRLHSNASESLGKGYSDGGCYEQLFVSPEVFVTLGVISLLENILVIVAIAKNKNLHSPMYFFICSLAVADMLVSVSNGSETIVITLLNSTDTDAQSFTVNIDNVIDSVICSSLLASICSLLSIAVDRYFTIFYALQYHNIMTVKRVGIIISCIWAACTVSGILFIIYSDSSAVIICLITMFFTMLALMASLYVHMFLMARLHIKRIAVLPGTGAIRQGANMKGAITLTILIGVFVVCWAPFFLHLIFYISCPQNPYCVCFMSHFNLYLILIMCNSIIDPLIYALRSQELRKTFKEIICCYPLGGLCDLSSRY
T7 sequence (P32245 whole entry): as above
T8 sequence (P33032 whole entry): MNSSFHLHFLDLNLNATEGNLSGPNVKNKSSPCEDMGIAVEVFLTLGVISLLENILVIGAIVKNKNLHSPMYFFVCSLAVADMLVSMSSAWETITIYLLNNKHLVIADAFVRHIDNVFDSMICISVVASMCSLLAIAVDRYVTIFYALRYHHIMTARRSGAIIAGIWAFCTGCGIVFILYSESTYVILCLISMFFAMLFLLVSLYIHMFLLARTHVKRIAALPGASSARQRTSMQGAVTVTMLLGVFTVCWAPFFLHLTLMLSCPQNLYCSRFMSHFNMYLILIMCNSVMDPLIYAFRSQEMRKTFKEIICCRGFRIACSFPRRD
T1 sequence (P33032 whole entry): as above
T2 sequence (P41968 whole entry): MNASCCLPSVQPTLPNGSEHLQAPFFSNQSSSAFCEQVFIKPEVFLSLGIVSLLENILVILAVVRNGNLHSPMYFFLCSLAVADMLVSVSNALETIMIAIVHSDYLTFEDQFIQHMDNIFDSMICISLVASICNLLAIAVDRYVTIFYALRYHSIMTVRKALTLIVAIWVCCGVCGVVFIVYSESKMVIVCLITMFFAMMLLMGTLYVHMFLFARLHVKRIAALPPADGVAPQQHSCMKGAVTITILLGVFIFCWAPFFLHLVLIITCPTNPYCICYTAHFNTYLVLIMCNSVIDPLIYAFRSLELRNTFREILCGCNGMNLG
T5 sequence (P41968 whole entry): as above

As a reminder, the Inhibition is the change of the read-out against control, counted positive when it falls. Higher therefore signals strong suppression. In the case of `[2H]N[C@@H](Cc1cnc[nH]1)C(=O)N[C@@H](Cc1ccccc1)C(=O)N1C[C@H](OCc2ccccc2)C[C@H]1C(=O)NCCCCCCN` [Example 27], the “Inhibition at 1 μM MC5-R” value at hMC5-R is 17%. The “Inhibition at 1 μM MC3-R” value on hMC3-R stood at 0%. The “Inhibition at 1 μM MC1-R” value in assay [1] is recorded as 39%. Also, the “Inhibition at 1 μM MC4-R” value at hMC4-R stood at 12%.

Consider `[2H]N[C@@H](Cc1cnc[nH]1)C(=O)N[C@@H](Cc1ccccc1)C(=O)N1C[C@H](OCc2ccccc2)C[C@H]1C(=O)NCCCCCN` [Example 26], for which the “Inhibition at 1 μM MC5-R” value on hMC5-R is 14%. Besides, the “Inhibition at 1 μM MC3-R” value at hMC3-R came out at 0%. In assay [1], the “Inhibition at 1 μM MC1-R” value came out at 34%. Also, the “Inhibition at 1 μM MC4-R” value on hMC4-R turned out to be 47%.

A word on the inhibition: it is the drop in the measured response relative to a control, in per cent. Higher therefore signals a strong effect. As a reminder, the Ki is a dissociation constant, usually derived from enzyme kinetics or from competition with a known ligand. Read a low Ki as higher affinity. `NCCCCC1C(=O)N2C(COc3ccc4ccccc4c3)CCC2N1C(=O)C(Cc1ccc(Cl)cc1)NC(=O)C1Cc2ccccc2CN1` (centres unmarked) [Example 11]: the inhibition at 1 µM worked out at 73% on hMC5-R, 24% on hMC3-R, 95% in assay [1] and 94% at hMC4-R. Moreover, the Ki in assay [2] was 787 nM; in [3] it was 10 nM; in assay [4] it was 24 nM; in assay [5] it was 398 nM.

In the case of `[2H]N[C@@H](Cc1cnc[nH]1)C(=O)N[C@@H](Cc1ccccc1)C(=O)N1C2CC[C@H](COc3ccc4ccccc4c3)N2C(=O)[C@@H]1CCCCN` (some centres unmarked) [Example 42], the values for the inhibition at 1 µM at hMC5-R, at hMC3-R and at hMC4-R were 0%, 0% and 36%, respectively.

For the compound `N=C(N)NCCCC1C(=O)N2C(COc3ccc4ccccc4c3)CCC2N1CC(N)Cc1ccc(Cl)cc1Cl` (centres unmarked) [Compound O], the inhibition at 1 µM on hMC5-R came out at 49%; at hMC3-R it was 28%; in [1] it was 2%; at hMC4-R, 91%. Moreover, the Ki was 505 nM in [2], 848 nM in assay [3], 29 nM in assay [4] and 689 nM in [5].

`N=C(N)NCCCC1C(=O)N2C(COc3ccc4ccccc4c3)CCC2N1C(=O)C(Cc1ccc(Cl)cc1Cl)NC(=O)C1CCC(c2ccccc2)N1` (centres unmarked) [Example 46]: the Ki came out at 312 nM in assay [2] and 1040 nM in [3]. For the same compound, the “24 hour change in food intake” value with Male Sprague-Dawley rats was -9.52 g. Besides, the change in weight in the assay with Male Sprague-Dawley rats (24 hour) is -10.64 g.

For the compound `N=C(N)NCCCC1C(=O)N2C(Cc3ccc4ccccc4c3)CCC2N1C(=O)C(N)Cc1ccc(Cl)cc1Cl` (centres unmarked) [Compound G], the “agonist/antagonist status as to MC5-R” value in [6] is listed as “agonist”. Besides, the inhibition at 1 µM worked out at 46% at hMC5-R, 63% on hMC3-R, 76% in [1] and 93% on hMC4-R. Moreover, the Ki was found to be 121 nM in assay [2], 63 nM in [3], 19 nM in [4] and 1050 nM in assay [5]. Moreover, in assay [7], the “agonist/antagonist status as to MC4-R” value is on record as “agonist”.

With `N=C(N)NCCCC1C(=O)N2C(COc3ccc4ccccc4c3)CCC2N1C(=O)C(Cc1ccccc1Cl)NC(=O)C1CC(OCc2ccccc2)CN1` (centres unmarked) [Example 31], in [8], the “agonist/antagonist status as to MC1-R” value was “agonist”. Further, the “agonist/antagonist status as to MC4-R” value in assay [7] is listed as “agonist”.

Regarding `N=C(N)NCCCC1C(=O)N2C(COc3ccc4ccccc4c3)CCC2N1C(=O)C(N)Cc1ccc(Cl)cc1Cl` (centres unmarked) [Compound B], the “agonist/antagonist status as to MC5-R” value in assay [6] was “agonist”. In addition, the inhibition at 1 µM on hMC5-R came out at 69%; at hMC3-R, 75%; in assay [1], 54%; on hMC4-R it was 98%. The Ki is 132 nM in assay [2], 144 nM in assay [3], 11 nM in assay [4] and 499 nM in assay [5]. Further, the “agonist/antagonist status as to MC1-R” value in [8] was “agonist”. Also, in assay [7], the “agonist/antagonist status as to MC4-R” value is “agonist”.

With `[2H]N[C@@H](Cc1ccccc1)C(=O)N1C2CC[C@H](COc3ccc4ccccc4c3)N2C(=O)[C@@H]1CCCCN` (some centres unmarked) [Example 38], the inhibition at 1 µM on hMC5-R was 1%; on hMC3-R, 13%; in assay [1] it was 46%; at hMC4-R, 0%.

Consider `CCCCCCC(=O)NC(COCc1ccccc1)C(=O)NC(Cc1ccc(Cl)cc1)C(=O)N1C(CCCCN)C(=O)N2C(COc3ccc4ccccc4c3)CCC21` (centres unmarked) [Example 12], for which the inhibition at 1 µM at hMC5-R turned out to be 95%; at hMC3-R, 75%; in assay [1] it was 98%; on hMC4-R, 98%. In addition, the Ki came out at 181 nM in assay [2], 13 nM in [3], 22 nM in [4] and 116 nM in [5].

With `[2H]N[C@@H](Cc1ccccc1)C(=O)N1C2CC[C@H](COc3ccccc3)N2C(=O)[C@@H]1CCCCN` (some centres unmarked) [Example 36], the inhibition at 1 µM at hMC5-R came to 0%; at hMC3-R it was 4%; in assay [1] it was 1%; at hMC4-R, 0%.

For the compound `N=C(N)NCCCC1C(=O)N2C(COc3ccc4ccccc4c3)CCC2N1C(=O)C(Cc1ccccc1Cl)NC(=O)C(N)COCc1ccccc1` (centres unmarked) [Example 30], the inhibition at 1 µM came out at 94% on hMC5-R, 29% at hMC3-R, 57% in assay [1] and 94% at hMC4-R. The Ki is 733 nM in assay [2], 121 nM in assay [3], 41 nM in [4] and 151 nM in [5].

As for `N=C(N)NCCCC1C(=O)N2C(COc3ccc4ccccc4c3)CCC2N1C(=O)C(Cc1ccccc1Cl)NC(=O)C1Cc2ccccc2CN1` (centres unmarked) [Example 29], the inhibition at 1 µM at hMC5-R amounted to 87%; on hMC3-R, 42%; in assay [1] it was 77%; on hMC4-R it was 98%. The Ki amounted to 756 nM in [2], 81 nM in assay [3], 9 nM in assay [4] and 301 nM in assay [5].
